Like-named read-outs stand apart in the source and are kept apart here.
Columns and labels:
[1] = tested on: TRPV4 gene; assay: cells; assay type: cell-based, human; settings: for Expression level of TRPV4 gene (relative value): nhek cells, 10 µM; for fold induction at 10 µM: Homo sapiens, NHEK, light or radiation study, read-out: Expression level of TRPV4 gene (relative value)
Protocol: • (Confirmation of activity of aqueous composition containing δ-TPG and HD: expression of TRPV4 gene) • Normal human epidermal keratinocytes (NHEK, manufactured by KURABO INDUSTRIES LTD.) were seeded in a plastic petri dish at a seeding density of 10,000 cells/cm^2, and cultured for 24 hours in a normal human epidermal keratinocyte serum-free culture medium (manufactured by KURABO INDUSTRIES LTD.).
8.94 g of water, 1.0 g of HD, and 0.06 g of δ-TPG were mixed and stirred to obtain an aqueous composition. The above-described aqueous composition was added to a culture solution in which the above-described NHEK cells had been cultured for 24 hours, such that the final concentration of δ-TPG was 10 µM.
After adding the δ-TPG, the above-described culture solution was further cultured for 48 hours. Thereafter, the culture solution was irradiated with UVB at 60 mJ/cm^2 using a UVB irradiation device of UVP, LLC. Thereafter, a fresh normal human epidermal keratinocyte growth medium was added to the above-described culture solution, and the culture was further carried out for 24 hours. In this manner, evaluation cells were obtained.
Total RNA was extracted from the evaluation cells obtained above, and cDNA was synthesized. Subsequently, quantitative real-time PCR was carried out using the above-described cDNA as a template, and the expression level of the TRPV4 gene in the NHEK cells was quantified. The expression level of glyceraldehyde 3-phosphate dehydrogenase (GAPDH) was quantified as an internal standard gene. […] The expression level of the TRPV4 gene was standardized with reference to the expression level of the GAPDH gene in the NHEK cells. As a primer for amplifying the GAPDH gene, a primer GAPDH (ID: HA067812) manufactured by Takara Bio Inc. was used. As a primer for amplifying the TRPV4 gene, a primer TRPV4 (ID: HA186338) manufactured by Takara Bio Inc. was used.
The same operation as described above was carried out using, instead of δ-TPG, D-α-tocopheryl glucoside (hereinafter, may be abbreviated as "α-TPG"), tocopherol acetate (FUJIFILM Wako Pure Chemical Corporation; hereinafter, may be abbreviated as "TPA"), δ-tocopherol (Sigma-Aldrich Co., LLC; hereinafter, may be abbreviated as "δ-TP"), or α-tocopherol (SEIKO-EPSON CORPORATION; hereinafter, may be abbreviated as "α-TP"), thereby obtaining evaluation cells. The expression level of the TRPV4 gene was measured for these evaluation cells by the same operation as described above.
The expression level of the TRPV4 gene was determined as a relative value when the expression level of the TRPV4 gene in reference cells was set to 1. The reference cells were prepared by culturing the NHEK cells without adding a test compound to the cell culture solution and without irradiating the cells with UVB. HD was added to the cell culture solution of the reference cells so that the HD concentration in the cell culture solution was the same as that in the culture solution when δ-TPG was added and cultured. The culture conditions for the NHEK cells were the same as those when δ-TPG was added, except that δ-TPG was not added and UVB irradiation was not carried out.
Comparative cells were prepared by culturing the NHEK cells by not adding the test compound to the cell culture solution and irradiating the cells with UVB. […] The expression level of the TRPV4 gene in the comparative cells was determined by the same method as described above.

[2] = tested on: claudin 1 (CLDN1) gene; assay: Expression of TJ-related gene CLDN1 in UVB-irradiated NHEK cells, quantitative real-time PCR; assay type: cell-based, human; settings: for fold induction at 10 µM: Homo sapiens, light or radiation study, read-out: Expression level of gene (relative value) CLDN1 gene
Protocol: (§1) • (Confirmation of activity of aqueous composition with δ-TPG and HD: effect of promoting expression of TJ-related gene) • Normal human epidermal keratinocytes (NHEK, manufactured by KURABO INDUSTRIES LTD.) were subjected to the same operation as in Experimental Example 2 to obtain evaluation cells.
(§2) Total RNA was extracted from the evaluation cells thus obtained, and cDNA was synthesized. Subsequently, quantitative real-time PCR was carried out using the above-described cDNA as a template, and the expression levels of the claudin 1 (CLDN1) gene and occludin (OCL) gene in the NHEK cells were quantified. In addition, the expression level of GAPDH was quantified as an internal standard gene. The expression levels of the CLDN1 gene and OCL gene were standardized with reference to the expression level of the GAPDH gene in the NHEK cells. As a primer for amplifying the GAPDH gene, a primer GAPDH (ID: HA067812) manufactured by Takara Bio Inc. was used. As a primer for amplifying the CLDN1 gene, a primer CLDN1 (ID: HA103348) manufactured by Takara Bio Inc. was used. As a primer for amplifying the OCL gene, a primer OCL (ID: HA036753) manufactured by Takara Bio Inc. was used.
(§3) The same operation as described above was performed using, instead of δ-TPG, α-TPG, TPA, δ-TP, or α-TP to obtain evaluation cells. The expression levels of the CLDN1 gene and OCL gene were measured for these evaluation cells by the same operation as described above.
(§4) The expression level of each gene was determined as a relative value when the expression level of each gene in reference cells was set to 1. The reference cells were prepared by the same operation as the reference cells in Experimental Example 2.
(§5) The expression levels of the CLDN1 gene and OCL gene in comparative cells were determined by the same method as described above. The comparative cells were prepared by the same operation as the comparative cells in Experimental Example 2.

[3] = tested on: occludin (OCL) gene; assay: Expression of TJ-related gene OCL in UVB-irradiated NHEK cells, quantitative real-time PCR; assay type: cell-based, human; settings: for fold induction at 10 µM: Homo sapiens, light or radiation study, read-out: Expression level of gene (relative value) OCL gene
Protocol: as §1, §2, §3, §4, §5

[4] = tested on: skin model (model "EP1-200"); assay: TJ-forming ability evaluation test: transepidermal water loss (TEWL) of skin model; assay type: cell-based; settings: cultured 24 hours
Protocol: A skin model (model "EP1-200", manufactured by KURABO INDUSTRIES LTD.) was pre-cultured for 1 hour under the conditions of 37°C and 5% CO2. Subsequently, δ-TPG dissolved in a 0.5% by mass HD aqueous solution at a concentration of 0.2% by mass was added to the surface of the skin model, and the skin model was further cultured for 24 hours. Subsequently, δ-TPG was removed, the sample was washed three times with a phosphate buffer solution, and the transepidermal water loss (TEWL) was measured. A cyclone water vaporizer (manufactured by ASCH JAPAN Co.,Ltd.) was used for measuring the TEWL.
TEWL was measured by performing the same operation as described above using TPA instead of δ-TPG.
For comparison, a 0.5% by mass HD aqueous solution not containing δ-TPG instead of δ-TPG dissolved in a 0.5% by mass HD aqueous solution was used, and the same operation as described above was performed to measure the TEWL.
The same operation as described above was performed using δ-TP dissolved in 1% by mass of HD at a concentration of 0.2% by mass, instead of δ-TPG dissolved in 0.5% by mass of HD, and the TEWL was measured.
It was confirmed that TEWL was suppressed in the group in which δ-TPG was added. […]

[5] = Confirmation of solubility of tocopheryl glucoside (visual observation of vials); settings: aqueous composition not containing HD
Protocol: The solubility of the D-δ-tocopheryl glucoside (hereinafter, may be abbreviated as "δ-TPG") was examined.
9.9 g of each of the mixtures was placed in individual vials, 0.01 g of solid δ-TPG was added to each vial, and the mixture was stirred at room temperature. After stirring for 1 hour, the state of each vial was observed.

[6] = NHEK cells, final concentration 10 µM, UVB 60 mJ/cm^2 performed, relative to reference cells (HD, no UVB) = 1, standardized to GAPDH
[7] = 0.2% by mass in 0.5% by mass HD aqueous solution on skin model surface

Expression level of TRPV4 gene (relative value) [1] | Compound | fold induction at 10 µM [1] | fold induction at 10 µM [2, 6] | fold induction at 10 µM [3, 6] | TEWL [4, 7] | further results
0.54 | δ-tocopherol [δ-TP/HD] | – | – | – | – | Expression level of gene (relative value) CLDN1 gene ([2]; nhek cells, 10 µM): 1.00; Expression level of gene (relative value) OCL gene ([3]; nhek cells, 10 µM): 1.91; TEWL ([4]; 0.2% by mass in 1% by mass of HD on skin model surface): 8.2 ± 1.2 g/(h·m^2)
0.77 | D-α-tocopheryl glucoside [α-TPG/HD] | – | – | – | – | Expression level of gene (relative value) CLDN1 gene [2, 6]: 1.24; Expression level of gene (relative value) OCL gene [3, 6]: 3.24

The next lines start with the compound.

Compound | Expression level of TRPV4 gene (relative value) [1] | fold induction at 10 µM [1] | fold induction at 10 µM [2, 6] | fold induction at 10 µM [3, 6] | TEWL [4, 7] | further results
Cc1c(C)c2c(c(C)c1O)CCC(C)(CCCC(C)CCCC(C)CCCC(C)C)O2 (stereo not drawn) [α-TP/HD, α-tocopherol] | – | 0.43 | – | – | – | fold induction at 10 µM ([2]; NHEK): 1; fold induction at 10 µM ([3]; NHEK): 2.48
CC(=O)Oc1c(C)c(C)c2c(c1C)CCC(C)(CCCC(C)CCCC(C)CCCC(C)C)O2 (stereo not shown) [TPA/HD, tocopherol acetate] | – | 0.29 | 0.77 | 1.12 | 12.4 ± 0.8 g/(h·m^2) | –
Cc1cc(OC2OC(CO)C(O)C(O)C2O)cc2c1OC(C)(CCCC(C)CCCC(C)CCCC(C)C)CC2 [δ-TPG, D-δ-tocopheryl glucoside] | – | 0.83 | 1.28 | 3.45 | 7.9 ± 1.7 g/(h·m^2) | –
tocopheryl glucoside | – | – | – | – | – | solubility of tocopheryl glucoside [5]: not sufficiently dissolved

Reference: patent EP4640207A1, “AQUEOUS COMPOSITION AND EXTERNAL PREPARATION FOR SKIN” (Resonac Corporation, priority 2022, dated 2024)
